ChEMBL document CHEMBL1129718, “Morphan based substance P antagonists” (Bioorg Med Chem Lett, 1996)

Target: Substance-P receptor (Homo sapiens, UniProt P25103)
Assay: Compound was evaluated for binding affinity towards neurokinin NK1 receptor.

Sequence of Substance-P receptor (P25103 whole entry): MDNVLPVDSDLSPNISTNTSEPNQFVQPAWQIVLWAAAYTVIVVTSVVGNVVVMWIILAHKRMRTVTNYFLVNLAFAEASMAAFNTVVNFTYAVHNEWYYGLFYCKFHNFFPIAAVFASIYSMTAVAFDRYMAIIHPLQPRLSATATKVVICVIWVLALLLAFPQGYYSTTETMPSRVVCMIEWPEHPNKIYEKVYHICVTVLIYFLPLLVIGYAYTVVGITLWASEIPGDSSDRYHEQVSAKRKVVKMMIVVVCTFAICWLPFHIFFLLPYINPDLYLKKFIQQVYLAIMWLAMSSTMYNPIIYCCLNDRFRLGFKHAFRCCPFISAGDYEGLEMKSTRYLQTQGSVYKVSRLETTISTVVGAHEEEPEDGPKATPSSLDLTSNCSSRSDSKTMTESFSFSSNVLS

Compound	Ki [nM]
COc1ccccc1CN[C@@H]1C2CCNC1(c1ccccc1)CC=C2C (some centres not stated)	> 3160
COc1ccccc1CN[C@H]1C2CCNC1(c1ccccc1)CC=C2C (some centres not stated)	0.631
